Measured values taken from patent publication US8957074B2 (Novartis AG, priority 2010, dated 2015).
Where two headings read alike, the source gives them in different places.

Tests used:
CDK4/cyclin D1 = CDK4/cyclin D1 (Homo sapiens (Human), UniProt P11802); test: CDK4/cyclin D1 enzymatic activity assay (TR-FRET, phosphorylation of pRb at Ser780); type: biochemical
In short: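 Phosphorylation at pRb Ser780, detected by TR-FRET, gave IC50s and kinetics. Enzyme: baculovirus/Sf21-expressed human CDK4/cyclin D1. ATP at 3 μM initiated the reaction; EDTA (pH 8.0) stopped it after 60 min at 22° C.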

[1] = tested on: phosphorylation of pRb at the Ser780 site in JeKo-1 mantle cell lymphoma cells; test: CDK4 cellular assay: ELISA of pRb phosphorylation at Ser780 in JeKo-1 cells; type: cell-based
CDK1/cyclin B = CDK1/cyclin B (Homo sapiens (Human), UniProt P06493); test: CDK1/cyclin B enzymatic activity assay (IMAP-FP); type: biochemical; details: 100 nM Tamra Histone-H1 peptide, 20 μM ATP, 120 min at room temperature, read-out: Biochemical CDK1 enzyme IC50
Source text: CDK1/Cyclin B Enzymatic Activity Assay
A 384-well microtiter IMAP-FP™ (Molecular Devices Trade Mark Technology) endpoint assay was used for CDK1/cyclin B kinase activity measurements. The same assay was used for IC50 determination of small molecule inhibitors.

[2] = Homo sapiens, JeKo-1, JeKo-1 cells, p-pRb % inhibition adjusted with total pRb levels, read-out: Normalized cellular ppRb inhibition IC50
[3] = Homo sapiens, JeKo-1, JeKo-1 cells, p-pRb Ser780 ELISA, non-normalized, read-out: Cellular ppRb inhibition IC50
[4] = JeKo-1 cells, p-pRb % inhibition adjusted with total pRb levels, read-out: Normalized cellular ppRb inhibition IC50
[5] = JeKo-1 cells, p-pRb Ser780 ELISA, non-normalized, read-out: Cellular ppRb inhibition IC50
[6] = 0.3 nM CDK4/cyclin D1, 150 nM biotin-pRb (773-924), 3 μM ATP, 60 min at 22° C., read-out: Biochemical CDK4 enzyme IC50
[7] = Homo sapiens, JeKo-1, read-out: Cellular ppRb inhibition IC50
[8] = Homo sapiens, JeKo-1, read-out: Normalized cellular ppRb inhibition IC50
[9] = Homo sapiens, JeKo-1 cells, p-pRb % inhibition adjusted with total pRb levels, read-out: Normalized cellular ppRb inhibition IC50
[10] = Homo sapiens, JeKo-1 cells, p-pRb Ser780 ELISA, non-normalized, read-out: Cellular ppRb inhibition IC50

CDK4/cyclin D1, sequence (P11802 whole entry): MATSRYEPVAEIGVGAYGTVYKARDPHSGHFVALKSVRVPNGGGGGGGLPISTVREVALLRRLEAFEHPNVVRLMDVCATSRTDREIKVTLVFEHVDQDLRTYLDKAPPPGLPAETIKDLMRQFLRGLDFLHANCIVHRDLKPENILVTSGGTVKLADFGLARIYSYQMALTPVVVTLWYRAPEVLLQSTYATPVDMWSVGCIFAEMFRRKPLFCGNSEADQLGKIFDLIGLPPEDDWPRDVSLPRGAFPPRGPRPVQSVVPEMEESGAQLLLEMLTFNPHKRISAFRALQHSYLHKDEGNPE
CDK4/cyclin D1, sequence (P24385 whole entry partner): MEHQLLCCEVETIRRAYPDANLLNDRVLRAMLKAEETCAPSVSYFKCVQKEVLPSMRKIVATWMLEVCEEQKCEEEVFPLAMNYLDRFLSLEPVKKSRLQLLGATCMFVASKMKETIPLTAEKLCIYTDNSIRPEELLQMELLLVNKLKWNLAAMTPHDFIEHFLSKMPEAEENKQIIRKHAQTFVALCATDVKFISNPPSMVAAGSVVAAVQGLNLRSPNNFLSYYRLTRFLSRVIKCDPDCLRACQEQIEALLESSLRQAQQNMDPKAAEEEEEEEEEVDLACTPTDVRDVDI
CDK1/cyclin B, sequence (P06493 whole entry, species assumed): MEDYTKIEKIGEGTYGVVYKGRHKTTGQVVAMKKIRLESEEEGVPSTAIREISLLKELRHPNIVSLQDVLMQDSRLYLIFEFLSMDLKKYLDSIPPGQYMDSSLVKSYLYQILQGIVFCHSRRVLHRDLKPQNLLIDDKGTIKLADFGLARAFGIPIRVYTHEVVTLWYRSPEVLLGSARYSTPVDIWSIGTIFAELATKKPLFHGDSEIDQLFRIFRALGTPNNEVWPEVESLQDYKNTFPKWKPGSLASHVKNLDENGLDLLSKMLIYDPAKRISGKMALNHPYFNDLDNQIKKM
CDK1/cyclin B, sequence (P14635 whole entry partner, species assumed): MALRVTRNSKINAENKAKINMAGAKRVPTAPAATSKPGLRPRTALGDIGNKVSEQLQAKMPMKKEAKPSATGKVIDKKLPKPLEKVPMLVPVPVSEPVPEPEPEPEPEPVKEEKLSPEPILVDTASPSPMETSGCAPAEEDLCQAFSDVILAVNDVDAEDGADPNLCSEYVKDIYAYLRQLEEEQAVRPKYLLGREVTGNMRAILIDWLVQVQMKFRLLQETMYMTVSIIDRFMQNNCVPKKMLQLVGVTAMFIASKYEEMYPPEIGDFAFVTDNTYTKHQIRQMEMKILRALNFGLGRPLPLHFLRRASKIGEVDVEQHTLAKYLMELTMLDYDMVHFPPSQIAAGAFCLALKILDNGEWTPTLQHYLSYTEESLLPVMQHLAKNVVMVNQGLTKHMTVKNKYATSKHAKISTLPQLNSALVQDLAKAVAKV

SMILES	IC50 [1, 2] [nM]	IC50 [1, 3] [nM]	IC50 (CDK1/cyclin B; […] CDK1/cyclin B) [nM]	IC50 (CDK4/cyclin D1; [6]) [nM]	IC50 [1, 9] [nM]	IC50 [1, 10] [nM]	other results
CN(C)C(=O)c1cc2cnc(Nc3ccc(C(=O)N4C5CCC4CNC5)cn3)nc2n1C1CCCC1 [Example 22, 7-Cyclopentyl-2-[5-(3,8-diaza-bicyclo[3.2.1]octane-8-carbonyl)-pyridin-2-ylamino]-7H-pyrrolo[2,3-d]pyrimidine-6-carboxylic acid dimethylamide]	86 to 817	86 to 513	> 15000	–	–	–	IC50 (CDK4/cyclin D1): 62 to 83 nM
CN(C)C(=O)c1cc2cnc(Nc3ccc(N4CC5CCC(CC4=O)N5)cn3)nc2n1C1CCCC1 (stereo not shown) [Example 122, 7-Cyclopentyl-2-[5-(4-oxo-3,9-diaza-bicyclo[4.2.1]non-3-yl)-pyridin-2-ylamino]-7H-pyrrolo[2,3-d]pyrimidine-6-carboxylic acid dimethylamide]	–	–	> 15000	–	–	–	IC50 (CDK4/cyclin D1): 5 to 10 nM; IC50 [1, 4]: 14 nM; IC50 [1, 5]: 9 nM
CN(C)C(=O)c1cc2cnc(Nc3ccc(C(=O)N4[C@@H]5CC[C@H]4C[C@@H](O)C5)cn3)nc2n1C1CCCC1 [Example 44, 7-Cyclopentyl-2-[5-((1S,3R,5R)-3-hydroxy-8-aza-bicyclo[3.2.1]octane-8-carbonyl)-pyridin-2-ylamino]-7H-pyrrolo[2,3-d]pyrimidine-6-carboxylic acid dimethylamide]	–	–	> 15000	177 to 351	–	–	IC50 [1, 7]: 720 to 1490 nM; IC50 [1, 8]: 778 nM
CN(C)C(=O)c1cc2cnc(Nc3ccc(N4CCN5CCC[C@H]5C4=O)cn3)nc2n1C1CCCC1 [Example 146]	2900	2700	> 15000	619	–	–	–
Cc1cc(Nc2ncc3cc(C(=O)N(C)C)n(C4CCCC4)c3n2)ncc1C(=O)N1CC2CCC(C1)N2 [Example 51, 7-Cyclopentyl-2-[5-(3,8-diaza-bicyclo[3.2.1]octane-3-carbonyl)-4-methyl-pyridin-2-ylamino]-7H-pyrrolo[2,3-d]pyrimidine-6-carboxylic acid dimethylamide]	–	–	–	23	60	28	IC50 (CDK1/cyclin B; 0.25 nM CDK1/cyclin B): > 15000 nM
CC(=O)N1C2CCC1CN(C(=O)c1ccc(Nc3ncc4cc(C(=O)N(C)C)n(C5CCCC5)c4n3)nc1)C2 [Example 27, 2-(5-(8-acetyl-3,8-diazabicyclo[3.2.1]octane-3-carbonyl)pyridin-2-ylamino)-7-cyclopentyl-N,N-dimethyl-7H-pyrrolo[2,3-d]pyrimidine-6-carboxamide]	–	–	> 15000	46	201	194	–
CN(C)C(=O)c1cc2cnc(Nc3ccc(C(=O)N4CC5CCC(C4)N5)cn3)nc2n1C(C)(C)C [Example 58, 7-tert-Butyl-2-[5-(3,8-diaza-bicyclo[3.2.1]octane-3-carbonyl)-pyridin-2-ylamino]-7H-pyrrolo[2,3-d]pyrimidine-6-carboxylic acid dimethylamide]	–	–	> 15000	74	288 to 338	105 to 188	–
CN(C)C(=O)c1cc2cnc(Nc3ccc(N4CC5CCC(C4)N5)nn3)nc2n1C1CCCCC1 [Example 126, 7-Cyclohexyl-2-[6-(3,8-diaza-bicyclo[3.2.1]oct-3-yl)-pyridazin-3-ylamino]-7H-pyrrolo[2,3-d]pyrimidine-6-carboxylic acid dimethylamide]	45 to 49	23 to 32	> 15000	10 to 31	–	–	–
CN(C)C(=O)c1cc2cnc(Nc3ccc(N4CC5CCC(C4)N5)cn3)nc2n1C1CCCC1 [Example 112, 7-Cyclopentyl-2-[5-(3,8-diaza-bicyclo[3.2.1]oct-3-yl)pyridin-2-ylamino]-7H-pyrrolo[2,3-d]pyrimidine-6-carboxylic acid dimethylamide]	–	–	> 15000	11 to 34	231	92	–
CN(C)C(=O)c1cc2cnc(Nc3ccc(C(=O)N4C[C@@H]5C[C@H]4C[C@H]5O)cn3)nc2n1C1CCCC1 [Example 31, 7-cyclopentyl-2-(5-((1S,4S,5R)-5-hydroxy-2-azabicyclo[2.2.1]heptane-2-carbonyl)pyridin-2-ylamino)-N,N-dimethyl-7H-pyrrolo[2,3-d]pyrimidine-6-carboxamide]	–	–	> 15000	69 to 81	497 to 591	252 to 352	–
CN(C)C(=O)c1cc2cnc(Nc3ccc(N4C(=O)CN5CCC4CC5)cn3)nc2n1C1CCCCCC1 [Example 97, 7-cycloheptyl-N,N-dimethyl-2-(5-(3-oxo-1,4-diazabicyclo[3.2.2]nonan-4-yl)pyridin-2-ylamino)-7H-pyrrolo[2,3-d]pyrimidine-6-carboxamide]	–	–	–	51	–	–	IC50 [1, 7]: 66 nM; IC50 [1, 8]: 145 nM; IC50 (CDK1/cyclin B; 0.25 nM CDK1/cyclin B): > 15000 nM
CN(C)C(=O)c1cc2cnc(Nc3ccc(C(=O)N4CC5CC4CN5)cn3)nc2n1C1CCCCCC1 (stereo not shown) [Example 3, 7-Cycloheptyl-2-[5-(2,5-diaza-bicyclo[2.2.1]heptane-2-carbonyl)-pyridin-2-ylamino]-7H-pyrrolo[2,3-d]pyrimidine-6-carboxylic acid dimethylamide]	–	–	–	1	29 to 33	19 to 26	IC50 (CDK1/cyclin B; 0.25 nM CDK1/cyclin B): 4200 to 5140 nM
CN(C)C(=O)c1cc2cnc(Nc3ccc(C(=O)N4CC5CCC(C4)N5)nn3)nc2n1C1CCCC1 [Example 73, 7-Cyclopentyl-2-[6-(3,8-diaza-bicyclo[3.2.1]octane-3-carbonyl)-pyridazin-3-ylamino]-7H-pyrrolo[2,3-d]pyrimidine-6-carboxylic acid dimethylamide]	–	–	> 15000	–	–	–	IC50 (CDK4/cyclin D1; read-out: Biochemical CDK4 enzyme IC50, 0.3 nM CDK4/cyclin D1, 150 nM biotin-pRb (773-924), 3 μM ATP, 60 min at 22° C.): 45 to 84 nM; IC50 [1, 4]: 139 to 783 nM; IC50 [1, 5]: 75 to 259 nM
CN(C)C(=O)c1cc2cnc(Nc3ccc(N4CC5CNCC5CC4=O)cn3)nc2n1C1CCCC1 (racemic) [Example 90, 7-cyclopentyl-N,N-dimethyl-2-(5-(cis-6-oxotetrahydro-1H-pyrrolo[3,4-c]pyridin-5(6H,7H,7aH)-yl)pyridin-2-ylamino)-7H-pyrrolo[2,3-d]pyrimidine-6-carboxamide]	14 to 56	9 to 34	> 15000	5	–	–	–
CN(C)C(=O)c1cc2cnc(Nc3ccc(C(=O)N4C[C@@H]5[C@@H](N)[C@@H]5C4)cn3)nc2n1C1CCCC1 [Example 42, 2-[5-((1S,5R,6S)-6-Amino-3-aza-bicyclo[3.1.0]hexane-3-carbonyl)-pyridin-2-ylamino]-7-cyclopentyl-7H-pyrrolo[2,3-d]pyrimidine-6-carboxylic acid dimethylamide]	–	–	> 15000	15	241	86	–
CN(C)C(=O)c1cc2cnc(Nc3ccc(N4C[C@H]5CC[C@@H](CC4=O)N5)cn3)nc2n1C1CCCC1 [Example 123, 7-Cyclopentyl-2-[5-((1R,6S)-4-oxo-3,9-diaza-bicyclo[4.2.1]non-3-yl)-pyridin-2-ylamino]-7H-pyrrolo[2,3-d]pyrimidine-6-carboxylic acid dimethylamide]	8 to 99	5 to 16	29300	3	–	–	–
CN(C)C(=O)c1cc2cnc(Nc3ccc(N4C[C@@H]5CC[C@H](CC4=O)N5)cn3)nc2n1C1CCCCC1 [Example 132, 7-Cyclohexyl-2-[5-((1S,6R)-4-oxo-3,9-diaza-bicyclo[4.2.1]non-3-yl)-pyridin-2-ylamino]-7H-pyrrolo[2,3-d]pyrimidine-6-carboxylic acid dimethylamide]	28 to 47	21 to 50	> 15000	19	–	–	–
CN(C)C(=O)c1cc2cnc(Nc3ccc(N4CC5CC5(N)C4)cn3)nc2n1C1CCCC1 (stereo not shown) [Example 78, 2-[5-(1-Amino-3-aza-bicyclo[3.1.0]hex-3-yl)-pyridin-2-ylamino]-7-cyclopentyl-7H-pyrrolo[2,3-d]pyrimidine-6-carboxylic acid dimethylamide]	–	–	–	76	–	–	IC50 [1, 7]: 59 nM; IC50 (CDK1/cyclin B; 0.25 nM CDK1/cyclin B): > 15000 nM
CN(C)C(=O)c1cc2cnc(Nc3ccc(N4C[C@@H]5CC[C@H](CC4=O)N5)cn3)nc2n1C1CCCC1 [Example 124, 7-Cyclopentyl-2-[5-((1S,6R)-4-oxo-3,9-diaza-bicyclo[4.2.1]non-3-yl)-pyridin-2-ylamino]-7H-pyrrolo[2,3-d]pyrimidine-6-carboxylic acid dimethylamide]	–	–	> 15000	23	–	–	IC50 [1, 4]: 261 nM; IC50 [1, 5]: 158 nM
CC(C)N1[C@@H]2CC[C@H]1CN(c1ccc(Nc3ncc4cc(C(=O)N(C)C)n(C5CCCC5)c4n3)nc1)C(=O)C2 [Example 142, 7-Cyclopentyl-2-[5-((1S,6R)-9-isopropyl-4-oxo-3,9-diaza-bicyclo[4.2.1]non-3-yl)-pyridin-2-ylamino]-7H-pyrrolo[2,3-d]pyrimidine-6-carboxylic acid dimethylamide]	–	–	> 15000	34	13	6	–
